Patent publication US20110152268A1, “NOVEL PHARMACEUTICAL COMPOSITION FOR TREATING NOCICEPTIVE PAIN” (ASTELLAS PHARMA INC., priority 2008, published 2011)
Structures can show the parent of a compound that is named as a salt. Where two headings read alike, the source gives them in different places.

What was measured:
[1] = system: Bradykinin-Induced Knee Pain Model; conditions: as a joint injection; cited from earlier work
[2] = system: Monoiodoacetate (MIA)-Induced Osteoarthritis Model; conditions: rats, 3 weeks after MIA administration, inflammation already recovered; cited from earlier work
[3] = system: Monoiodoacetate (MIA)-Induced Osteoarthritis Model; assay: Analgesic action in monoiodoacetate (MIA)-induced osteoarthritis model (difference in hindlimb weight); assay type: in vivo, rat; conditions: male SD rats, 3 weeks after MIA, oral, compound A 30 mg/kg, 1 hour after administration
Protocol: The present disease model was produced based on the description of Toxicol Pathol 31 (6), 619-624 (2003). […] MIA was dissolved in physiological saline and 50 μl of the resulting solution was administered with a needle (26 gauge, 0.5 inch). […] The solvent herein used was distilled water. One hour after administration, the difference in weight between the left and right hindlimbs was measured using an incapacitance tester (manufactured by Linton Instrumentation, Norfolk, UK).

[4] = system: Adjuvant-Derived Arthritis Rat; assay: Inhibitory effect on the difference in hindlimb weight of adjuvant-derived arthritis rat; assay type: in vivo
Protocol: In this test, female Lewis rats (7-8 weeks old) were used. 50 μL of H37 Ra (manufactured by DIFCO Co.), Mycobacterium tuberculosis suspended with liquid paraffin to a concentration of 10 mg/mL was subcutaneously administered around the right hind footpad. […] The number of rats of each group was 8. The solvent herein used was distilled water. When taking into consideration the period for obtaining a maximum in-blood-concentration, at one hour after administration, the difference in weight between the left and right hindlimbs was measured using an incapacitance tester (manufactured by Linton Instrumentation, Norfolk, UK).

[5] = system: Bradykinin-Induced Knee Pain Model
Protocol: The induction and evaluation of the present model was basically carried out in accordance with Ann Rheum Dis, 52, 817-822 (1993). A diluted solution, which was diluted with a solvent so as to obtain a vehicle and the compound A having a predetermined concentration, was orally administered to male SD rats (6-7 week old, obtained by Charles River Laboratories Japan, Inc.). This test was carried out for 10 rats of each group. The solvent herein used was distilled water. […] The inhibition rate of the drug to be tested was calculated by setting the difference in weight of a vehicle-administered group to an inhibition rate of 0% and the difference in weight of a normal group to an inhibition rate of 100%. Significant difference testing was carried out by between-group comparison between the vehicle group and the drug group using a Dunnett's t-test after ANOVA testing.

[6] = compound A 10 mg/kg vs duloxetine 30 mg/kg, oral

hyaluronan
effectiveness in the bradykinin model [1]: effective

O=C(O)Cc1ccccc1Nc1c(Cl)cccc1Cl [diclofenac]
effectiveness of NSAIDs on pain in this stage of the MIA model [2]: not effective

C1=Cc2cccc(OCC3CNCCO3)c2C1 (single isomer, unassigned; (+)) [compound A hydrobromate, (+)-2-[(inden-7-yloxy)methyl]morpholine]
improvement effect (inhibition rate) on the difference in hindlimb weight [3]: 54%
improvement effect (inhibition rate) on the difference in hindlimb weight ([4]; female Lewis rats, day after adjuvant, oral, 10 mg/kg, 1 hour after administration): 65%

COc1ccc2c(c1)c(CC(=O)O)c(C)n2C(=O)c1ccc(Cl)cc1 [indomethacin]
effectiveness of NSAIDs on pain in this stage of the MIA model [2]: not effective

CNCC[C@H](Oc1cccc2ccccc12)c1cccs1 [duloxetine, (S)—N-methyl-γ-(1-naphthalenyloxy)-2-thiophenepropanamine]
improvement effect (inhibition rate) on pain behavior score ([5]; rat, in vivo, po, 30 mg/kg): 56%

C1=Cc2cccc(OCC3CNCCO3)c2C1 (single isomer, unassigned; (+)) [compound A, (+)-2-[(inden-7-yloxy)methyl]morpholine]
improvement effect relative to duloxetine [4, 6]: about 3 fold
improvement effect relative to duloxetine [5, 6]: ~3 fold

C1=Cc2cccc(OCC3CNCCO3)c2C1 (single isomer, unassigned; (+)) [compound A benzenesulfonate, (+)-2-[(inden-7-yloxy)methyl]morpholine]
improvement effect (inhibition rate) on pain behavior score ([5]; male SD rats, oral, 10 mg/kg, bradykinin injected 1 hour after administration): 55%

CNCC[C@H](Oc1cccc2ccccc12)c1cccs1 [duloxetine hydrochloride, (S)—N-methyl-γ-(1-naphthalenyloxy)-2-thiophenepropanamine]
improvement effect (inhibition rate) on the difference in hindlimb weight ([4]; rat, in vivo, po, 30 mg/kg): 63%
